According to the NIST ThermoML archive (doi:10.1021/je501133u):
Numbers after ± are expanded uncertainties.

Legend:
[1] = xn = mol fraction of the nth substance listed; settings: 100 kPa, Liquid, x1 = 1; for viscosity: Falling or rolling sphere viscometry; for mass density: Vibrating tube method
[2] = 100 kPa, Liquid; for viscosity: Falling or rolling sphere viscometry; for mass density: Vibrating tube method

SMILES | viscosity ([1]; 293.15 K) | mass density ([1]; 293.15 K) | viscosity ([1]; 298.15 K) | mass density ([1]; 298.15 K) | viscosity ([2]; 293.15 K) | mass density ([2]; 293.15 K) | viscosity ([2]; 298.15 K) | mass density ([2]; 298.15 K) | viscosity ([2]; 303.15 K) | mass density ([2]; 303.15 K) | viscosity ([2]; 308.15 K) | mass density ([2]; 308.15 K) | viscosity ([2]; 313.15 K) | mass density ([2]; 313.15 K) | viscosity ([2]; 318.15 K) | mass density ([2]; 318.15 K) | viscosity ([2]; 323.15 K) | mass density ([2]; 323.15 K) | viscosity ([2]; 328.15 K) | mass density ([2]; 328.15 K) | further results
CCO [ethanol] + CCCCCCCO | 1.15 ± 0.02 mPa·s | 790.1 ± 0.2 kg/m3 | 1.07 ± 0.02 mPa·s | 785.9 ± 0.2 kg/m3 | – | – | – | – | – | – | – | – | – | – | – | – | – | – | – | – | viscosity ([1]; 303.15 K): 0.97 ± 0.02 mPa·s; mass density ([1]; 303.15 K): 781.6 ± 0.2 kg/m3; viscosity ([1]; 308.15 K): 0.89 ± 0.02 mPa·s; mass density ([1]; 308.15 K): 777.2 ± 0.2 kg/m3; viscosity ([1]; 313.15 K): 0.81 ± 0.02 mPa·s; mass density ([1]; 313.15 K): 772.9 ± 0.2 kg/m3; viscosity ([1]; 318.15 K): 0.76 ± 0.02 mPa·s; mass density ([1]; 318.15 K): 768.4 ± 0.2 kg/m3; viscosity ([1]; 323.15 K): 0.68 ± 0.02 mPa·s; mass density ([1]; 323.15 K): 764 ± 0.2 kg/m3; viscosity ([1]; 328.15 K): 0.63 ± 0.02 mPa·s; mass density ([1]; 328.15 K): 759.4 ± 0.2 kg/m3
CCCCCCO [hexan-1-ol] | – | – | – | – | 5.35 ± 0.05 mPa·s | 818.9 ± 0.3 kg/m3 | 4.56 ± 0.04 mPa·s | 815.3 ± 0.3 kg/m3 | 3.9 ± 0.04 mPa·s | 811.7 ± 0.3 kg/m3 | 3.36 ± 0.04 mPa·s | 808.1 ± 0.3 kg/m3 | 2.91 ± 0.03 mPa·s | 804.5 ± 0.3 kg/m3 | 2.54 ± 0.03 mPa·s | 800.8 ± 0.3 kg/m3 | 2.23 ± 0.03 mPa·s | 797.1 ± 0.3 kg/m3 | 1.97 ± 0.03 mPa·s | 793.4 ± 0.3 kg/m3 | –
CCO [ethanol] | – | – | – | – | 1.15 ± 0.02 mPa·s | 790.1 ± 0.2 kg/m3 | 1.07 ± 0.02 mPa·s | 785.9 ± 0.2 kg/m3 | 0.97 ± 0.02 mPa·s | 781.6 ± 0.2 kg/m3 | 0.89 ± 0.02 mPa·s | 777.2 ± 0.2 kg/m3 | 0.81 ± 0.02 mPa·s | 772.9 ± 0.2 kg/m3 | 0.76 ± 0.02 mPa·s | 768.4 ± 0.2 kg/m3 | 0.68 ± 0.02 mPa·s | 764 ± 0.2 kg/m3 | 0.63 ± 0.02 mPa·s | 759.4 ± 0.2 kg/m3 | –
CCCCCCCO [heptan-1-ol] | – | – | – | – | 7.15 ± 0.07 mPa·s | 822.3 ± 0.3 kg/m3 | 6.07 ± 0.06 mPa·s | 818.8 ± 0.3 kg/m3 | 5.18 ± 0.05 mPa·s | 815.3 ± 0.3 kg/m3 | 4.44 ± 0.04 mPa·s | 811.8 ± 0.3 kg/m3 | 3.83 ± 0.04 mPa·s | 808.2 ± 0.3 kg/m3 | 3.33 ± 0.04 mPa·s | 804.6 ± 0.3 kg/m3 | 2.89 ± 0.03 mPa·s | 801 ± 0.3 kg/m3 | 2.54 ± 0.03 mPa·s | 797.4 ± 0.3 kg/m3 | –
CCO [ethanol] + CCCCCCO | 1.15 ± 0.02 mPa·s | 790.1 ± 0.2 kg/m3 | 1.07 ± 0.02 mPa·s | 785.9 ± 0.2 kg/m3 | – | – | – | – | – | – | – | – | – | – | – | – | – | – | – | – | viscosity ([1]; 303.15 K): 0.97 ± 0.02 mPa·s; mass density ([1]; 303.15 K): 781.6 ± 0.2 kg/m3; viscosity ([1]; 308.15 K): 0.89 ± 0.02 mPa·s; mass density ([1]; 308.15 K): 777.2 ± 0.2 kg/m3; viscosity ([1]; 313.15 K): 0.81 ± 0.02 mPa·s; mass density ([1]; 313.15 K): 772.9 ± 0.2 kg/m3; viscosity ([1]; 318.15 K): 0.76 ± 0.02 mPa·s; mass density ([1]; 318.15 K): 768.4 ± 0.2 kg/m3; viscosity ([1]; 323.15 K): 0.68 ± 0.02 mPa·s; mass density ([1]; 323.15 K): 764 ± 0.2 kg/m3; viscosity ([1]; 328.15 K): 0.63 ± 0.02 mPa·s; mass density ([1]; 328.15 K): 759.4 ± 0.2 kg/m3
